{"source": "ChEMBL document CHEMBL4680246", "about": "“Design, synthesis and biological evaluation of novel O-carbamoyl ferulamide derivatives as multi-target-directed ligands for the treatment of Alzheimer's disease” (Eur J Med Chem, 2020)", "key": {"[1]": {"assay": "Drug uptake in iv dosed mouse cortex measured after 60 mins by PET imaging analysis", "type": "ADME, organism-based", "conditions": "in vivo, 1 h; call rule not given here"}, "[2]": {"assay": "Drug uptake in iv dosed mouse amygdala measured after 60 mins in presence of (E)-4-(3-(3,4-dihydroisoquinolin-2(1H)-yl)-3-oxoprop-1-en-1-yl)-2-methoxyphenyl ethyl(methyl)carbamate by PET imaging analysis", "type": "ADME, organism-based", "conditions": "in vivo"}, "[3]": {"assay": "Drug uptake in iv dosed mouse hippocampus measured after 60 mins in presence of (E)-4-(3-(3,4-dihydroisoquinolin-2(1H)-yl)-3-oxoprop-1-en-1-yl)-2-methoxyphenyl ethyl(methyl)carbamate by PET imaging analysis", "type": "ADME, organism-based", "conditions": "in vivo"}, "[4]": {"assay": "Drug uptake in iv dosed mouse hypothalamus measured after 60 mins by PET imaging analysis", "type": "ADME, organism-based", "conditions": "in vivo, 1 h"}, "[5]": {"assay": "Drug uptake in iv dosed mouse brainstem measured after 60 mins in presence of rivastigmine by PET imaging analysis", "type": "ADME, organism-based", "conditions": "in vivo, 1 h"}, "[6]": {"assay": "Drug uptake in iv dosed mouse brain measured up to 60 mins in presence of rivastigmine by PET imaging analysis", "type": "ADME, organism-based", "conditions": "in vivo, 1 h"}, "[7]": {"assay": "Drug uptake in iv dosed mouse hypothalamus measured after 60 mins in presence of rivastigmine by PET imaging analysis", "type": "ADME, organism-based", "conditions": "in vivo, 1 h"}, "[8]": {"assay": "Drug uptake in iv dosed mouse cortex measured after 60 mins in presence of (E)-4-(3-(3,4-dihydroisoquinolin-2(1H)-yl)-3-oxoprop-1-en-1-yl)-2-methoxyphenyl ethyl(methyl)carbamate by PET imaging analysis", "type": "ADME, organism-based", "conditions": "in vivo"}, "[9]": {"assay": "Drug uptake in iv dosed mouse central gray substance of midbrain measured after 60 mins by PET imaging analysis", "type": "ADME, organism-based", "conditions": "in vivo, 1 h"}, "[10]": {"assay": "Drug uptake in iv dosed mouse striatum measured after 60 mins by PET imaging analysis", "type": "ADME, organism-based", "conditions": "in vivo, 1 h"}, "[11]": {"assay": "Drug uptake in iv dosed mouse hypothalamus measured after 60 mins in presence of (E)-4-(3-(3,4-dihydroisoquinolin-2(1H)-yl)-3-oxoprop-1-en-1-yl)-2-methoxyphenyl ethyl(methyl)carbamate by PET imaging analysis", "type": "ADME, organism-based", "conditions": "in vivo"}, "[12]": {"assay": "Drug uptake in iv dosed mouse cerebellum measured after 60 mins in presence of rivastigmine by PET imaging analysis", "type": "ADME, organism-based", "conditions": "in vivo, 1 h"}, "[13]": {"assay": "Drug uptake in iv dosed mouse brainstem measured after 60 mins in presence of (E)-4-(3-(3,4-dihydroisoquinolin-2(1H)-yl)-3-oxoprop-1-en-1-yl)-2-methoxyphenyl ethyl(methyl)carbamate by PET imaging analysis", "type": "ADME, organism-based", "conditions": "in vivo"}, "[14]": {"assay": "Drug uptake in iv dosed mouse brain measured after 5 mins by PET imaging analysis", "type": "ADME, organism-based", "conditions": "in vivo"}, "[15]": {"assay": "Drug uptake in iv dosed mouse brain measured after 60 mins by PET imaging analysis", "type": "ADME, organism-based", "conditions": "in vivo, 1 h"}, "[16]": {"assay": "Drug uptake in iv dosed mouse thalamus measured after 60 mins by PET imaging analysis", "type": "ADME, organism-based", "conditions": "in vivo, 1 h"}, "[17]": {"assay": "Drug uptake in iv dosed mouse brain measured at 2 mins by PET imaging analysis", "type": "ADME, organism-based", "conditions": "in vivo"}, "[18]": {"assay": "Drug uptake in iv dosed mouse amygdala measured after 60 mins in presence of rivastigmine by PET imaging analysis", "type": "ADME, organism-based", "conditions": "in vivo, 1 h"}, "[19]": {"assay": "Drug uptake in iv dosed mouse liver measured after 30 mins by PET imaging analysis", "type": "ADME, organism-based", "conditions": "in vivo, 0.5 h"}, "[20]": {"assay": "Drug uptake in iv dosed mouse hippocampus measured after 60 mins in presence of rivastigmine by PET imaging analysis", "type": "ADME, organism-based", "conditions": "in vivo, 1 h"}, "[21]": {"assay": "Drug uptake in iv dosed mouse cortex measured after 60 mins in presence of rivastigmine by PET imaging analysis", "type": "ADME, organism-based", "conditions": "in vivo, 1 h"}, "[22]": {"assay": "Drug uptake in iv dosed mouse lung measured after 5 mins by PET imaging analysis", "type": "ADME, organism-based", "conditions": "in vivo"}, "[23]": {"assay": "Drug uptake in iv dosed mouse striatum measured after 60 mins in presence of (E)-4-(3-(3,4-dihydroisoquinolin-2(1H)-yl)-3-oxoprop-1-en-1-yl)-2-methoxyphenyl ethyl(methyl)carbamate by PET imaging analysis", "type": "ADME, organism-based", "conditions": "in vivo"}, "[24]": {"assay": "Drug uptake in iv dosed mouse brain measured up to 60 mins in presence of (E)-4-(3-(3,4-dihydroisoquinolin-2(1H)-yl)-3-oxoprop-1-en-1-yl)-2-methoxyphenyl ethyl(methyl)carbamate by PET imaging analysis", "type": "ADME, organism-based", "conditions": "in vivo"}, "[25]": {"assay": "Drug uptake in iv dosed mouse spleen measured after 60 mins by PET imaging analysis", "type": "ADME, organism-based", "conditions": "in vivo, 1 h"}, "[26]": {"assay": "Drug uptake in iv dosed mouse cerebellum measured after 60 mins by PET imaging analysis", "type": "ADME, organism-based", "conditions": "in vivo, 1 h"}, "[27]": {"assay": "Drug uptake in iv dosed mouse brainstem measured after 60 mins by PET imaging analysis", "type": "ADME, organism-based", "conditions": "in vivo, 1 h"}, "[28]": {"assay": "Drug uptake in iv dosed mouse central gray substance of midbrain measured after 60 mins in presence of (E)-4-(3-(3,4-dihydroisoquinolin-2(1H)-yl)-3-oxoprop-1-en-1-yl)-2-methoxyphenyl ethyl(methyl)carbamate by PET imaging analysis", "type": "ADME, organism-based", "conditions": "in vivo"}, "[29]": {"assay": "Drug uptake in iv dosed mouse cerebellum measured after 60 mins in presence of (E)-4-(3-(3,4-dihydroisoquinolin-2(1H)-yl)-3-oxoprop-1-en-1-yl)-2-methoxyphenyl ethyl(methyl)carbamate by PET imaging analysis", "type": "ADME, organism-based", "conditions": "in vivo"}, "[30]": {"assay": "Drug uptake in iv dosed mouse striatum measured after 60 mins in presence of rivastigmine by PET imaging analysis", "type": "ADME, organism-based", "conditions": "in vivo, 1 h"}, "[31]": {"assay": "Drug uptake in iv dosed mouse thalamus measured after 60 mins in presence of rivastigmine by PET imaging analysis", "type": "ADME, organism-based", "conditions": "in vivo, 1 h"}, "[32]": {"assay": "Drug uptake in iv dosed mouse thalamus measured after 60 mins in presence of (E)-4-(3-(3,4-dihydroisoquinolin-2(1H)-yl)-3-oxoprop-1-en-1-yl)-2-methoxyphenyl ethyl(methyl)carbamate by PET imaging analysis", "type": "ADME, organism-based", "conditions": "in vivo"}, "[33]": {"assay": "Drug uptake in iv dosed mouse central gray substance of midbrain measured after 60 mins in presence of rivastigmine by PET imaging analysis", "type": "ADME, organism-based", "conditions": "in vivo, 1 h"}, "[34]": {"assay": "Drug uptake in iv dosed mouse heart measured after 5 mins by PET imaging analysis", "type": "ADME, organism-based", "conditions": "in vivo"}, "[35]": {"assay": "Drug uptake in iv dosed mouse hippocampus measured after 60 mins by PET imaging analysis", "type": "ADME, organism-based", "conditions": "in vivo, 1 h"}, "[36]": {"assay": "Drug uptake in iv dosed mouse amygdala measured after 60 mins by PET imaging analysis", "type": "ADME, organism-based", "conditions": "in vivo, 1 h"}, "Mus musculus [37]": {"system": "Mus musculus", "assay": "Improvement in brain cholinergic activity in scopolamine-induced mouse model of amnesia assessed as change in ChAT vitality at 6 mg/kg (reference value: 28.8 U/g)", "type": "functional"}, "Cholinesterase [38]": {"molecular_target": "T1, Cholinesterase (Homo sapiens, UniProt P06276)", "T1 sequence (P06276 whole entry)": "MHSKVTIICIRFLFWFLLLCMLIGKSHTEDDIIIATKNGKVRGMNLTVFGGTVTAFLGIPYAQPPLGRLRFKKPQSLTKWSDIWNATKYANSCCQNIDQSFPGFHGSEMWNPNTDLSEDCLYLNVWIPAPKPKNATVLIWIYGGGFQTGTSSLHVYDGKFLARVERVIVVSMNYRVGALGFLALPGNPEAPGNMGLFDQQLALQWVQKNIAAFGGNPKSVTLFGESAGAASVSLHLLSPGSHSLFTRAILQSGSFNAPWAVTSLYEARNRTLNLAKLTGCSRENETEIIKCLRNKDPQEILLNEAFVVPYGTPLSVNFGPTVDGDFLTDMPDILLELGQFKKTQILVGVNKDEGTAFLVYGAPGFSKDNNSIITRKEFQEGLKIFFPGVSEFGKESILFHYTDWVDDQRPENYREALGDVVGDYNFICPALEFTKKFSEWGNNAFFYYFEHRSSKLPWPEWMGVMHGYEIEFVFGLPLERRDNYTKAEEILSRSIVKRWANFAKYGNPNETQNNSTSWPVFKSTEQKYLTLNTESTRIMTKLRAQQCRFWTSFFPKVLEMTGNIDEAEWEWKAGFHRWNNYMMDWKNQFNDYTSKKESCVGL", "assay": "Inhibition of human serum BuChE assessed as residual activity at IC50 using acetylcholine iodide as substrate measured by Ellman's method relative to control"}, "Cholinesterase [39]": {"molecular_target": "T1, Cholinesterase", "assay": "Pseudo-irreversible inhibition of human serum BuChE assessed as residual activity at 0.1 times IC50 using acetylcholine iodide as substrate measured 240 mins post dilution by Ellman's method relative to control"}, "[40]": {"assay": "Effect on spontaneous alteration behavior in mouse assessed as change in total arm entry at 6 mg/kg by Y-maze test", "type": "ADME, organism-based", "conditions": "in vivo"}, "Mus musculus [41]": {"system": "Mus musculus", "assay": "Improvement in cognitive impairment in scopolamine-induced mouse model of amnesia assessed as change in spontaneous alteration at 6 mg/kg by Y-maze test (reference value: 40.8%)", "type": "functional"}, "Cholinesterase [42]": {"molecular_target": "T1, Cholinesterase", "assay": "Inhibition of human serum BuChE assessed as residual activity at 0.1 times IC50 using acetylcholine iodide as substrate measured after dilution by Ellman's method relative to control"}}, "data": [{"smiles": "CCN(C)C(=O)Oc1ccc(/C=C/C(=O)N2CCc3ccccc3C2)cc1O[11CH3]", "values": [{"measurement": "Drug uptake", "setting": "[1]", "result": "Active"}, {"measurement": "Drug uptake", "setting": "[2]", "result": "Not Active"}, {"measurement": "Drug uptake", "setting": "[3]", "result": "Not Active"}, {"measurement": "Drug uptake", "setting": "[4]", "result": "Active"}, {"measurement": "Drug uptake", "setting": "[5]", "result": "Not Active"}, {"measurement": "Drug uptake", "setting": "[6]", "result": "Not Active"}, {"measurement": "Drug uptake", "setting": "[7]", "result": "Not Active"}, {"measurement": "Drug uptake", "setting": "[8]", "result": "Not Active"}, {"measurement": "Drug uptake", "setting": "[9]", "result": "Active"}, {"measurement": "Drug uptake", "setting": "[10]", "result": -9, "unit": "%ID/cc"}, {"measurement": "Drug uptake", "setting": "[11]", "result": "Not Active"}, {"measurement": "Drug uptake", "setting": "[12]", "result": "Not Active"}, {"measurement": "Drug uptake", "setting": "[13]", "result": "Not Active"}, {"measurement": "Drug uptake", "setting": "[14]", "result": 6.21, "unit": "%ID/cc"}, {"measurement": "Drug uptake", "setting": "[15]", "result": "Active"}, {"measurement": "Drug uptake", "setting": "[16]", "result": "Active"}, {"measurement": "Drug uptake", "setting": "[17]", "result": 8.76, "unit": "%ID/cc"}, {"measurement": "Drug uptake", "setting": "[18]", "result": "Not Active"}, {"measurement": "Drug uptake", "setting": "[19]", "result": 14.46, "unit": "%ID/cc"}, {"measurement": "Drug uptake", "setting": "[20]", "result": "Not Active"}, {"measurement": "Drug uptake", "setting": "[21]", "result": "Not Active"}, {"measurement": "Drug uptake", "setting": "[22]", "result": 4.68, "unit": "%ID/cc"}, {"measurement": "Drug uptake", "setting": "[23]", "result": "Not Active"}, {"measurement": "Drug uptake", "setting": "[24]", "result": "Not Active"}, {"measurement": "Drug uptake", "setting": "[25]", "result": 11.49, "unit": "%ID/cc"}, {"measurement": "Drug uptake", "setting": "[26]", "result": "Active"}, {"measurement": "Drug uptake", "setting": "[27]", "result": "Active"}, {"measurement": "Drug uptake", "setting": "[28]", "result": "Not Active"}, {"measurement": "Drug uptake", "setting": "[29]", "result": "Not Active"}, {"measurement": "Drug uptake", "setting": "[30]", "result": "Not Active"}, {"measurement": "Drug uptake", "setting": "[31]", "result": "Not Active"}, {"measurement": "Drug uptake", "setting": "[32]", "result": "Not Active"}, {"measurement": "Drug uptake", "setting": "[33]", "result": "Not Active"}, {"measurement": "Drug uptake", "setting": "[34]", "result": 11.8, "unit": "%ID/cc"}, {"measurement": "Drug uptake", "setting": "[35]", "result": -9, "unit": "%ID/cc"}, {"measurement": "Drug uptake", "setting": "[36]", "result": "Active"}]}, {"smiles": "CCN(C)C(=O)Oc1cccc([C@H](C)N(C)C)c1", "note": "[RIVASTIGMINE]", "values": [{"measurement": "Activity", "setting": "Mus musculus [37]", "result": 55.3, "unit": "U/g"}, {"measurement": "Activity", "setting": "Cholinesterase [38]", "result": 48.3, "unit": "%"}, {"measurement": "Activity", "setting": "Cholinesterase [39]", "result": 73.3, "unit": "%"}, {"measurement": "Activity", "setting": "[40]", "result": "Non-Toxic"}, {"measurement": "Activity", "setting": "Mus musculus [41]", "result": 60.2, "unit": "%"}, {"measurement": "Activity", "setting": "Cholinesterase [42]", "result": 53.2, "unit": "%"}]}]}
